Source: patent US8772499B2, “TRPV3 modulators” (AbbVie Inc., priority 2011, dated 2014)
Read-outs that look alike come from different tables or passages of the source.

Legend:
[1] = In vitro rat microsomal stability assay; type: in vitro ADME, rat (Sprague-Dawley)
Procedure: (§1) Test compounds were evaluated for metabolic stability in an in vitro rat microsomal stability assay using rat liver microsomes (Sprague-Dawley, from BD Biosciences) and/or an in vitro human microsomal stability assay using human liver microsomes (Xenotech). […] Incubations were carried out at 37° C. with a final incubation volume of 135 μL. […] A 1.5 μL aliquot of reduced nicotine adenine disphosphonucleotide (NADPH) (Chem-Impex Int'L Inc., Lot 12532024) was also added to the time-zero plates.

[2] = In vitro human microsomal stability assay; type: in vitro ADME
Procedure: as §1

human TRPV3 = biological target: T1, human TRPV3 (Homo sapiens, UniProt Q8NET8); experiment: In vitro antagonism of recombinant human TRPV3 activation (FLIPR Tetra calcium assay); type: cell-based; details: HEK293 cells stably expressing human TRPV3, agonist 2-APB at 80 μM
T1 construct: expressed in transfected cells
T1 sequence (Q8NET8 1-790): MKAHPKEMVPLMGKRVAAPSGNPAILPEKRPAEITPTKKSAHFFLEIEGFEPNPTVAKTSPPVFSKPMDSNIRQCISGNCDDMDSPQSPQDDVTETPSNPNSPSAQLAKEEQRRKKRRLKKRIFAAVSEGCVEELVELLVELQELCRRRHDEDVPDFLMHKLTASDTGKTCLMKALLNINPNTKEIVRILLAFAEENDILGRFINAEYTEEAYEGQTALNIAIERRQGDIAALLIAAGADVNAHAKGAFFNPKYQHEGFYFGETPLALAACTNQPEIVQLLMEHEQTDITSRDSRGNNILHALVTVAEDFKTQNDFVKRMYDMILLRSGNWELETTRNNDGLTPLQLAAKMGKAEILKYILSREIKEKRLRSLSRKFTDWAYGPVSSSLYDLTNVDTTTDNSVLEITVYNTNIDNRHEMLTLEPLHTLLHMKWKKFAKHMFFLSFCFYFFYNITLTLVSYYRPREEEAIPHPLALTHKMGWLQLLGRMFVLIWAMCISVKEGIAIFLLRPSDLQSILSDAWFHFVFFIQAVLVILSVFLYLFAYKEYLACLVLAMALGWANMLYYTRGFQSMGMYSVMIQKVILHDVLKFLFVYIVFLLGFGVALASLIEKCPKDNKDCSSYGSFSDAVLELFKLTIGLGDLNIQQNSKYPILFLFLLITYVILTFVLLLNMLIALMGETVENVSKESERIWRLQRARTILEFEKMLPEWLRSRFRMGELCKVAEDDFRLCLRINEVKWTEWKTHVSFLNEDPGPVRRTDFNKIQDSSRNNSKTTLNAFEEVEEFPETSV
Procedure: Test compounds were evaluated for ability to antagonize the activation of recombinant human TRPV3 using FLIPR® Tetra cellular screening. Specifically, on the day prior to the experiment recombinant HEK293 cells that stably express human TRPV3 were removed from tissue culture flasks and plated in growth medium at 20,000 cells/well into Poly-d-lysine coated black/clear 384-well Plate (Corning, 3845) using a Multidrop® dispenser (ThermoScientific, Waltham, Mass.). Prior to the start of the assay, the medium was removed by aspiration, and cells were loaded with 30 μL no-wash FLIPR® Calcium-4 dye (λEX=470-495 nm, λEM=515-575 nm; Molecular Devices, Sunnyvale, Calif.). The cells were then incubated for 90-120 minutes in the dark prior to addition of the test compound.
A double-addition protocol was used. The test compound (i.e., the TRPV3 antagonist) was added at the 10 second time point, followed by the addition of a TRPV3 agonist three minutes later. Each test compound evaluated was first dissolved in DMSO to prepare a 10 mM stock solution. A solution (5×) of the test compound was then prepared in DPBS (Dulbecco's Phosphate Buffered Saline) and 10 μl, of that solution was added to the cells at a delivery rate of 40 μL/sec. The TRPV3 agonist used to activate human TRPV3 expressed by the […] was 2-aminoethoxy-diphenyl borate (2-APB; Tocris Cookson, Ellisville, Mo.) at 80 μM. Final assay volume was 50 μl, Total length of an experimental run was 10 minutes.
Changes in fluorescence were measured over time using the FLIPR® instrument. The intensity of the fluorescence was captured and digitally transferred to an interfaced computer. The maximum response minus minimum response was calculated and expressed as the percentage of the maximum 2-APB response in the absence of antagonist. The concentration of 2-APB corresponds to its EC80.
Table 1 reports the IC50 values measured for the test compounds as human TRPV3 antagonists. […] Actual measured values are shown parenthetically after the reported range. In most cases, the values reported are average values from at least two runs (i.e., n≧2).

[3] = rat liver microsomes (Sprague-Dawley), 0.5 μM substrate, 0.25 mg/mL microsomal protein, pH 7.4, 37° C., NADPH, 30 minutes
[4] = human liver microsomes, 0.5 μM substrate, 0.25 mg/mL microsomal protein, pH 7.4, 37° C., NADPH, 30 minutes
[5] = reported range, read-out: IC50 (range class)
[6] = Sprague-Dawley, rat, microsomes, 0.5 h, 0.5 μM, pH 7.4
[7] = human, microsomes, 0.5 h, 0.5 μM, pH 7.4
[8] = actual measured value shown parenthetically, in most cases average of at least two runs, read-out: IC50

| IC50 (human TRPV3; [5]) [µM] | RAT MICROSOMAL STABILITY (% REMAINING AFTER 30 MINUTES) [1, 6] [%] | HUMAN MICROSOMAL STABILITY (% REMAINING AFTER 30 MINUTES) [2, 7] [%] | IC50 (human TRPV3; [8]) [µM] | Structure (SMILES) | RAT […] (% REMAINING AFTER 30 MINUTES) [1, 3] [%] | HUMAN […] (% REMAINING AFTER 30 MINUTES) [2, 4] [%] | RAT MICROSOMAL STABILITY (% REMAINING AFTER 30 MINUTES) [1, 3] [%] | HUMAN MICROSOMAL STABILITY (% REMAINING AFTER 30 MINUTES) [2, 4] [%] |
| --- | --- | --- | --- | --- | --- | --- | --- | --- |
| > 20 | <0.01 | 20 | > 20 | OC(C1CCc2cccnc21)C1(c2ccc(OC(F)(F)F)cc2)CCC1 (stereo not drawn) [Example 176, (syn)-6,7-dihydro-5H-cyclopenta[b]pyridin-7-yl{1-[4-(trifluoromethoxy)-phenyl]cyclobutyl}methanol] | – | – | – | – |
| – | 8.6 | 62 | 2.19 | OC(c1ccccn1)C1(c2nc3ccccc3o2)CCC1 (stereo not shown) [Example 271, [1-(1,3-benzoxazol-2-yl)cyclobutyl](pyridin-2-yl)methanol] | – | – | – | – |
| > 20 | <0.01 | 1.6 | > 20 | Nc1cccnc1C(O)C1(c2cccc(OC(F)(F)F)c2)CCC1 (stereo not shown) [Example 124, (3-aminopyridin-2-yl) {1-[3-(trifluoromethoxy)phenyl]cyclobutyl}methanol] | – | – | – | – |
| > 20 | <0.01 | 45 | > 20 | OC(C1CCc2cccnc21)C1(c2ccc(C(F)(F)F)cc2)CCC1 (stereo not drawn) [Example 173, (anti)-6,7-dihydro-5H-cyclopenta[b]pyridin-7-yl{1-[4-(trifluoromethyl)-phenyl]cyclobutyl}methanol] | – | – | – | – |
| – | 55 | 64 | 18.5 | O=C1CC(c2cccc(C(F)(F)F)c2)([C@@H](O)c2ccccn2)C1 (single isomer, unassigned) [Example 243] | – | – | – | – |
| – | <0.01 | 20 | 3.32 | OC(c1ccccn1)C1(c2cccc(OC(F)(F)F)c2)CC2(C1)OCCO2 (stereo not shown) [Example 235, pyridin-2-yl{2-[3-(trifluoromethoxy)phenyl]-5,8-dioxaspiro[3.4]oct-2-yl}-methanol] | – | – | – | – |
| > 20 | 79 | >85 | > 20 | OC(c1ccccn1)C1(c2ccc(C(F)(F)F)cc2)CCNCC1 (stereo not shown) [Example 147, pyridin-2-yl{4-[4-(trifluoromethyl)phenyl]piperidin-4-yl}methanol] | – | – | – | – |
| > 20 | 52 | 71 | > 20 | OC(c1ccccn1)C1(c2ccncc2)CCC1 (stereo not shown) [Example 21, pyridin-2-yl(1-pyridin-4-ylcyclobutyl)methanol] | – | – | – | – |
| – | 10 | 64 | 2.41 | CN(C)N=C1CC(c2ccc(OC(F)(F)F)cc2)([C@H](O)c2ccccn2)C1 (stereo partly drawn) [Example 267, (S)-{3-(dimethylhydrazinylidene)-1-[4-(trifluoromethoxy)phenyl]-cyclobutyl}(pyridin-2-yl)methanol] | – | – | – | – |
| – | 75 | 75 | 0.3 | OC(c1ccccn1)C1(c2ccc(OC(F)(F)F)cc2)CC(F)(F)C1 (stereo not shown) [Example 112, {3,3-difluoro-1-[4-(trifluoromethoxy)phenyl]cyclobutyl}(pyridin-2-yl)-methanol] | – | – | – | – |
| – | <0.01 | 73 | 5.17 | OC(c1ccccn1)C1(c2ccc(OC(F)(F)F)cc2)CC2(C1)OCCO2 (stereo not shown) [Example 202, pyridin-2-yl{2-[4-(trifluoromethoxy)phenyl]-5,8-dioxaspiro[3.4]oct-2-yl}-methanol] | – | – | – | – |
| – | 29 | 70 | 1.17 | ON=C1CC(c2ccc(OC(F)(F)F)cc2)([C@H](O)c2ccccn2)C1 (stereo partly drawn) [Example 248, (S)-{3-(hydroxyimino)-1-[4-(trifluoromethoxy)phenyl]cyclobutyl}(pyridin-2-yl)methanol] | – | – | – | – |
| > 20 | <0.01 | <0.01 | > 20 | OC(C1CCCc2cccnc21)C1(c2ccccc2OC(F)(F)F)CCC1 (stereo not drawn) [Example 192, (syn)-5,6,7,8-tetrahydroquinolin-8-yl{1-[2-(trifluoromethoxy)phenyl]-cyclobutyl}methanol] | – | – | – | – |
| – | 57 | 42 | 9.51 | O=C1CC(c2cccc(OC(F)(F)F)c2)([C@@H](O)c2ccccn2)C1 (single isomer, unassigned) [Example 257] | – | – | – | – |
| – | >85 | >85 | 1.96 | OC1CC(c2ccc(Cl)c(Cl)c2)(C(O)c2ncccn2)C1 (single isomer, unassigned) [Example 312] | – | – | – | – |
| – | 0.64 | 17 | 0.32 | OC(c1ccccn1)C1(c2cccc(F)c2)CCC1 (stereo not shown) [Example 2, [1-(3-fluorophenyl)cyclobutyl](pyridin-2-yl)methanol] | – | – | – | – |
| – | 62 | 83 | 2.63 | NC1CCCC1C(O)C1(c2ccc(OC(F)(F)F)cc2)CCC1 (stereo not shown) [Example 206, (2-aminocyclopentyl) {1-[4-(trifluoromethoxy)phenyl]cyclobutyl}methanol] | – | – | – | – |

| Structure (SMILES) | IC50 (human TRPV3; [5]) [µM] | RAT MICROSOMAL STABILITY (% REMAINING AFTER 30 MINUTES) [1, 6] [%] | HUMAN MICROSOMAL STABILITY (% REMAINING AFTER 30 MINUTES) [2, 7] [%] | IC50 (human TRPV3; [8]) [µM] | RAT […] (% REMAINING AFTER 30 MINUTES) [1, 3] [%] | HUMAN […] (% REMAINING AFTER 30 MINUTES) [2, 4] [%] | RAT MICROSOMAL STABILITY (% REMAINING AFTER 30 MINUTES) [1, 3] [%] | HUMAN MICROSOMAL STABILITY (% REMAINING AFTER 30 MINUTES) [2, 4] [%] |
| --- | --- | --- | --- | --- | --- | --- | --- | --- |
| O[C@@H](c1ccccn1)[C@]1(c2cc(C(F)(F)F)ccn2)C[C@H](O)C1 (relative stereo) [Example 290, cis-3-[(R)-hydroxy(pyridin-2-yl)methyl]-3-[4-(trifluoromethyl)pyridin-2-yl]cyclobutanol] | > 20 | – | – | – | 71 | >85 | – | – |
| OC(c1ccccn1)C1(c2cccc(OC(F)(F)F)c2)CCNCC1 (stereo not shown) [Example 148, pyridin-2-yl{4-[3-(trifluoromethoxy)phenyl]piperidin-4-yl}methanol] | – | – | – | 3.1 | – | – | 53 | >85 |
| CN1CCC(c2ccc(C(F)(F)F)cc2)(C(O)c2ccccn2)CC1 (stereo not shown) [Example 143, {1-methyl-4-[4-(trifluoromethyl)phenyl]piperidin-4-yl}(pyridin-2-yl)-methanol] | > 20 | – | – | > 20 | – | – | 80 | >85 |
